Measured values: US20250275539A1, “APYRASE INHIBITORS” (Texas Crop Science, Inc., priority 2024, published 2025)
Like-named read-outs stand apart in the source and are kept apart here.

What was measured:
[1] = system: Amaranthus retroflexus (pigweed); assay: Enhancement of herbicide activity: pre-emergence Amaranthus kill with metribuzin; assay type: in vivo; conditions: for pest or weed control at 100 g/ha: Amaranthus retroflexus; for enhancement of metribuzin herbicidal activity: compound at 100 g/ha with metribuzin, at seven and fourteen days
Protocol: Specifically, Amaranthus retroflexus (pigweed) was treated pre-emergence with metribuzin alone or in combination with an enhancer compound disclosed herein. Fifteen seeds of Amaranthus retroflexus were sown in soil in each pot and then sprayed with a mixture of metribuzin at the appropriate rate shown in Table 5 and the compound of this invention at 100 g/ha using a track sprayer at a water volume of 200 L/hectare. Small amounts of acetone were used to aid solubility. The pots were watered immediately after sowing and treatment and then allowed to stand in a glasshouse. Assessment of kill was made seven and fourteen days after treatment. The test included four replicates for each treatment and the control.

[2] = system: Brown Rust (Puccinia recondita) on wheat; assay: Greenhouse crop test: control of Brown Rust on wheat in combination with commercial fungicides; assay type: in vivo; conditions: wheat JB Diego, inoculated 24 hours after treatment, evaluated at fourteen days; for Amistar (% control of the disease, compound + fungicide): with Amistar 0.04 L/ha; for Balaya (% control of the disease, compound + fungicide): with Balaya 0.25 L/ha; for Imtrex (% control of the disease, compound + fungicide): with Imtrex 0.45 L/ha; for Proline (% control of the disease, compound + fungicide): with Proline 0.15 L/ha
Protocol: In this method, exemplary compounds were evaluated for their ability to control Brown Rust (Puccinia recondita) on wheat in a controlled greenhouse environment in combination with one of four fungicides, Amistar, Imtrex, Proline or Balaya. In these studies, wheat plants (JB Diego) were used. Seeds were sown in 9 cm diameter pots to a depth of 1 to 2 cm using Petersfield potting compost (75% medium grade peat, 12% screened sterilized loam, 3% medium grade vermiculite, 10% grit (5 mm screened, lime free), 1.5 kg PG mix per m3, lime to pH5.5-6.0 and wetting agent (Vitax Ultrawet 200 ml per m3) and germinated/grown at 23 C under a 16 h day/8 h night light regime. Plants were treated two to three weeks after sowing when they were at the BBCH 11 growth stage ([…]). Wheat plants were inoculated with Puccinia triticina (Brown rust) 24 hours after treatment. A track sprayer was used to treat the plants with the mixture of commercial fungicide and test compound using a water volume of 200 L/ha. Four replicates were used for each combination of fungicide, pathogen and test compound. Each plant was evaluated at fourteen days (once the disease symptoms were fully expressed) for % control of the disease. Appropriate controls were used for all experiments, including an ‘inoculation check’ wherein plants were inoculated with their specific pathogen to assess disease levels. Also, each commercial fungicide was tested on its own as a part of each treatment, this being benchmark against which the experimental compounds were evaluated. […] That is, the present compounds, although not fungicidal by themselves, enhance the activity of fungicides, thus the enhancer compounds work synergistically in combination with fungicides to control disease. • Amistar (0.04 L/ha) • Imtrex (0.45 L/ha) • Proline (0.15 L/ha) • Balaya (0.25 L/ha)

apyrase = assay: Apyrase inhibition assay (screen for apyrase inhibitors, phosphate release read at 630 nm); assay type: biochemical; conditions: inhibitor conc at 1 mM (10 μl added), 3 mM ATP, pH 6.5, room temperature 1 hr
[3] = 168 h, read-out: Pre-Emergence Amaranthus Kill Percentage, Assessed 7 DAT, Metribuzin rate 50 g/ha
[4] = 168 h, read-out: Pre-Emergence Amaranthus Kill Percentage, Assessed 7 DAT, Metribuzin rate 100 g/ha
[5] = 168 h, read-out: Pre-Emergence Amaranthus Kill Percentage, Assessed 7 DAT, Metribuzin rate 200 g/ha
[6] = 336 h, read-out: Pre-Emergence Amaranthus Kill Percentage, Assessed 14 DAT, Metribuzin rate 50 g/ha
[7] = 336 h, read-out: Pre-Emergence Amaranthus Kill Percentage, Assessed 14 DAT, Metribuzin rate 100 g/ha
[8] = 336 h, read-out: Pre-Emergence Amaranthus Kill Percentage, Assessed 14 DAT, Metribuzin rate 200 g/ha

Compound | pest or weed control at 100 g/ha [1, 3] [%] | pest or weed control at 100 g/ha [1, 4] [%] | pest or weed control at 100 g/ha [1, 5] [%] | pest or weed control at 100 g/ha [1, 6] [%] | pest or weed control at 100 g/ha [1, 7] [%] | pest or weed control at 100 g/ha [1, 8] [%] | enhancement of metribuzin herbicidal activity [1] | Amistar (% control of the disease, compound + fungicide) [2] [%] | Balaya (% control of the disease, compound + fungicide) [2] [%] | Imtrex (% control of the disease, compound + fungicide) [2] [%] | Proline (% control of the disease, compound + fungicide) [2] [%] | Inhibition (apyrase)
COc1cccc(NS(=O)(=O)c2ccc(-c3ccccc3)cc2)c1 [Compound A-3, N-(3-methoxyphenyl)-[1,1′-biphenyl]-4-sulfonamide] | 15.6 | 68.9 | 34 | 21.7 | 72 | 38.5 | significant enhancement | 81.4 | 38.9 | 47.6 | 3.8 | A (A is inhibition above 30%)
O=C1Cc2cc(NS(=O)(=O)c3ccc(-c4ccccc4)cc3)ccc2N1 [Compound A-8, N-(2-oxoindolin-5-yl)-[1,1′-biphenyl]-4-sulfonamide] | 12.8 | 28.6 | 100 | 18.8 | 35.7 | 100 | significant enhancement | 72.9 | 77.2 | 47.8 | 13.3 | A (A is inhibition above 30%)
Cc1ccnc(NS(=O)(=O)c2ccc(CC#N)cc2)n1 [Compound A-21, 4-(cyanomethyl)-N-(4-methylpyrimidin-2-yl)benzenesulfonamide] | 0 | 62.3 | 100 | 4.4 | 63 | 100 | significant enhancement | 48.5 | 39.0 | 47.7 | 1.2 | A (A is inhibition above 30%)
O=S(=O)(Nc1ccc(-c2nncs2)cc1)c1ccc(-c2ccccc2)cc1 [Compound A-29, N-(4-(1,3,4-thiadiazol-2-yl)phenyl)-[1,1′-biphenyl]-4-sulfonamide] | 13.2 | 66.7 | 87.7 | 17.1 | 71.4 | 90 | significant enhancement | 67.0 | 59.5 | 60.1 | 18.7 | A (A is inhibition above 30%)
COc1cccc(NS(=O)(=O)c2ccc(-c3ccc(C)cc3)cc2)c1 [Compound A-34, N-(3-methoxyphenyl)-4′-methyl-[1,1′-biphenyl]-4-sulfonamide] | 28.3 | 70.5 | 100 | 37.3 | 77.8 | 100 | significant enhancement | 51.9 | 48.3 | 34.5 | 3.8 | A (A is inhibition above 30%)
O=S(=O)(Nc1cccc(C(F)(F)F)c1)c1cnc(-c2ccccc2)nc1 [Compound A-37, 2-phenyl-N-(3-(trifluoromethyl)phenyl)pyrim-idine-5-sulfonamide] |  |  |  |  |  |  |  | 58.7 | 78.0 | 12.7 | −1.2 | B (B is inhibition from 20% to 30%)
Cc1cccc(NS(=O)(=O)c2ccc(C(C)C)cc2)c1 [Compound A-59, 4-isopropyl-N-(m-tolyl)benzenesulfonamide] | 14.3 | 64.6 | 95 | 25.9 | 67.3 | 100 | significant enhancement | 95.0 | 50.0 | 30.9 | 15.6 | A (A is inhibition above 30%)
CCCc1ccc(S(=O)(=O)Nc2cccc(C)c2)cc1 [Compound A-62, 4-propyl-N-(m-tolyl)benzenesulfonamide] | 23.5 | 58.9 | 95.8 | 35.7 | 61 | 96 | significant enhancement | 71.7 | 21.7 | 38.8 | 1.4 | A (A is inhibition above 30%)
Cc1cccc(NS(=O)(=O)c2ccc(C3CCCCC3)cc2)c1 [Compound A-64, 4-cyclohexyl-N-(m-tolyl)benzenesulfonamide] |  |  |  |  |  |  |  | 69.5 | −75.9 | −15.4 | 2.9 | A (A is inhibition above 30%)
O=S(=O)(Nc1ccc2c(c1)CCCN2)c1ccc(-c2ccccc2)cc1 [Compound A-99, N-(1,2,3,4-tetrahydroquinolin-6-yl)-[1,1′-biphenyl]-4-sulfonamide] |  |  |  |  |  |  |  | 71.4 | 84.1 | 16.1 | 5.7 | A (A is inhibition above 30%)
Cc1cccc(NS(=O)(=O)c2ccc(CCC(=O)O)cc2)c1 [Compound A-103, 3-(4-(N-(m-tolyl)sulfamoyl)phenyl) propanoic acid] | 5.1 | 54.7 | 91.5 | 30.6 | 43.1 | 98.4 | significant enhancement | 37.0 | 67.2 | 13.2 | 4.4 | B (B is inhibition from 20% to 30%)
O=S(=O)(Nc1cccc(Cl)c1N1CCOCC1)c1ccc(-c2ccccc2)cc1 [Compound A-116, N-(3-chloro-2-morpholinophenyl)-[1,1′-biphenyl]-4-sulfonamide] |  |  |  |  |  |  |  | 68.0 | 24.2 | 48.4 | 14.6 | A (A is inhibition above 30%)
